Laboratory results as given in patent US6541500B1, “Fungicide mixture” (BASF Aktiengesellschaft, priority 1998, dated 2003).

Tested on: mildew of wheat (Erysiphe graminis forma specialis tritici)
Assay: Action against mildew of wheat (wheat seedlings cv. Kanzler, protective spray)
Format: in vivo
Conditions: single active ingredient, wheat leaves, 7 days after inoculation
Experimental: The active compounds, separately or together, are formulated as a 10% strength emulsion in a mixture of 70% by weight of cyclohexanone, 20% by weight of Nekanil® LN (Lutensol® AP6, wetting agent having emulsifying and dispersing action based on ethoxylated alkylphenols) and 10% by weight of Emulphor® EL (Emulan® EL, emulsifier based on ethoxylated fatty alcohols) and diluted with water to the desired concentration.
Evaluation is carried out by determining the infected leaf areas in percent. These percentages are converted into efficacies. The expected efficacies of the mixtures of the active compounds are determined using Colby's formula [R. S. Colby, Weeds 15, 20-22 (1967)] and compared with the observed efficacies.
At an efficacy of 0, the infection level of the treated plants corresponds to that of the untreated control plants; at an efficacy of 100, the treated plants are not infected.
Leaves of wheat seedlings of the cultivar “Kanzler”, grown in pots, were sprayed to run-off point with an aqueous formulation of active ingredient which had been prepared using a stock solution comprising 10% of active ingredient, 63% of cyclohexanone and 27% of emulsifier, and 24 h after the spraycoating had dried on the leaves were dusted with spores of mildew of wheat (Erysiphe graminis forma specialis tritici). The test plants were subsequently placed in climatized chambers at 20-24° C. and 60-90% relative atmospheric humidity for 7 days. The extent of the development of the disease on the leaves was then evaluated visually.
The visually determined values for the percentage of diseased leaf area were converted into efficacies in % of the untreated control. An efficacy of 0 means the same disease level as in the untreated control, an efficacy of 100 means a disease level of 0%. The expected efficacies for the active ingredient combinations were determined using Colby's formula (Colby, S. R. “Calculating synergistic and antagonistic responses of herbicide combinations”, Weeds, 15, pp. 20-22, 1967) and compared with the observed efficacies. […]

Compound: Fc1ccc(Oc2ccnc3cc(Cl)cc(Cl)c23)cc1 [I.78, quinoxyfen]
- Efficacy in % of the untreated control (conc. 0.06 ppm): 0%
- Efficacy in % of the untreated control (conc. 0.25 ppm): 0%
- Efficacy in % of the untreated control (conc. 1 ppm): 33%
